Experimental data as given in patent US11078222B2, “Hydroxybenzoic acid derivatives, methods and uses thereof” (UNiVERSIDADE DO PORTO, priority 2016, dated 2021).

Assays:
[1] = Iron (II) chelation, ferrozine assay; format: biochemical; settings: compound 100 μM
Method: In an embodiment, the iron (II) chelation capacity of the novel AntiOxBENs was evaluated by the ferrozine assay using EDTA (ethylenediaminetetracetic acid) as reference. The iron chelating properties of protocatechuic and gallic acids, and MitoQ, a mitochondriotropic antioxidant, were also evaluated (FIG. 2).
In an embodiment, AntiOxBENs iron chelating properties were evaluated by the spectrophotometric ferrozine method performed in a multiplate reader (Powerwave XS Microplate Reader) of Bio-Tech instruments.
In an embodiment, the AntiOxBENs iron chelating properties were evaluated as follows: in each well, a solution of the test compound (100 μM) and ammonium iron (II) sulphate in ammonium acetate (20 μM) were added, incubated for 10 min and the absorbance was read at 562 nm. Then, a freshly prepared solution of ferrozine (5 mM) was added to each well (96 μM final concentration). After a new incubation at 37° C. for 10 min period, the absorbance of [Fe(ferrozine)3]^2+ complex was measured at 562 nm. Blank wells were run using DMSO instead of the test compounds. EDTA was used as a reference. All compounds were tested at a final concentration of 100 μM. The absorbance of the first reading was subtracted to the final values to abolish any absorbance due to the test compounds.

[2] = system: rat liver mitochondria (RLM); test: Mitochondrial transmembrane electric potential (safranine fluorescence); format: biochemical
Method: (§1) In an embodiment, and as an example, the toxicity effects of some AntiOxBENs and MitoQ on the mitochondrial bioenergetics, namely on RLM Δψ and respiration parameters, were measured. The Δψ represents the main component of the electrochemical gradient generated by mitochondrial respiration and accounts for more than 90% of the total available energy. For mitochondrial respiration assays, glutamate/malate (for complex I) and succinate (for complex II) were used as substrates. In addition, the mitochondrial oxidative phosphorylation coupling index, known as respiratory control ratio (RCR, state 3/state 4 respiration) and ADP/O index (the coupling between ATP synthesis and oxygen consumption) were also calculated. AntiOxBENs and MitoQ were tested at antioxidant-relevant concentrations, with 10 μM being the highest concentration.
In an embodiment, the evaluation of AntiOxBENs effect on mitochondrial transmembrane electric potential (Δψ) was performed as follows: the mitochondrial transmembrane electric potential (Δψ) was estimated through the evaluation of fluorescence changes of safranine (5 μM) and was recorded on a spectrofluorometer operating at excitation and emission wavelengths of 495 and 586 nm, with a slit width of 5 nm. Increasing concentrations of AntiOxBENs (2.5-10 μM) were added to the reaction medium (200 mM sucrose, 1 mM KH2PO^4, 10 mM Tris (pH 7.4) and 10 μM EGTA) containing respiratory substrates glutamate/malate (5 mM and 2.5 mM respectively) or succinate (5 mM) and RLM (0.5 mg in 2 mL final volume) and allowed to incubate for a 5 min period prior to initiate the assay, at 25° C. In this assay, safranine (5 μM) and ADP (25 nmol) were used to initiate the assay and to induce depolarization, respectively. Then, 1 μM FCCP was added at the end of all experiments to depolarize mitochondria. Δψ was calculated using a calibration curve obtained when RLM were incubated in a K^+-free reaction medium containing 200 mM sucrose, 1 mM NaH2PO4, 10 mM Tris (pH 7.4) and 10 μM EGTA, supplemented with 0.4 μg valinomicin. […] “Repolarization” corresponded to the recovery of membrane potential after the complete phosphorylation of ADP added. Lag phase reflected the time required to phosphorylate the added ADP. Isolated RLM developed a Δψ≈226 mV and Δψ≈202 mV (negative inside) when glutamate/malate or succinate were used, respectively. Data are means±SEM of five independent experiments.

[3] = system: rat liver mitochondria (RLM); test: Mitochondrial respiration of isolated RLM (Clark-type oxygen electrode): RCR, ADP/O; format: biochemical
Method: as §1
In an embodiment, the evaluation of AntiOxBENs effect on mitochondrial respiration was performed as follows: the respiration of isolated RLM was evaluated polarographically with a Clark-type oxygen electrode, connected to a suitable recorder in a 1 mL thermostated water-jacketed chamber with magnetic stirring, at 37° C. […] Increasing concentrations of AntiOxBENs (2.5-10 μM) were added to the reaction medium containing respiratory substrates glutamate/malate (10 mM and 5 mM respectively) or succinate (5 mM) and RLM (1 mg) and allowed to incubate for a 5 min period prior to the assay. State 2 was considered as the respiration during the 5 min incubation time with AntiOxBENs. […] State 4 was determined after ADP phosphorylation finished. Subsequent addition of oligomycin (2 μg/ml) inhibited ATPsynthase and originated the oligomycin-inhibition respiration state. Finally, 1 μM FCCP was added to induce uncoupled respiration. […] Data are means are means±SEM of seven independent experiments.

[4] = system: rat liver mitochondria (RLM) membranes; test: RLM lipid peroxidation, TBARS assay (FeSO4/H2O2/ascorbate); settings: 5 μM; for prevention of TBARS formation / mitochondria lipid peroxidation: FeSO4/H2O2/ascorbate
[5] = ABTS radical cation scavenging activity; format: biochemical; settings: ethanol, 15 min
Method: (§2) The radical scavenging activity of AntiOxClNs was evaluated by means of total antioxidant capacity assays based on DPPH., ABTS.^+ and GO. radicals. All these methods involved the spectrophotometric measurement of the absorbance decrease resulting from radical (DPPH., ABTS.^+ or GO.) deactivation with an antioxidant. The results were expressed in IC50, which is defined as the minimum antioxidant concentration necessary to reduce the amount of radical by 50%. Antioxidant assays were performed in a multiplate reader (Powerwave XS Microplate Reader) from Bio Tech instruments.
In an embodiment, the ABTS.^+ scavenging activity was evaluated as follows: ethanolic solutions of the test compounds with increasing concentrations (range between 10 μM and 500 μM) were prepared. ABTS. radical cation solution was obtained by addition of 150 mM aqueous potassium persulfate solution (163 μL) to 10 mL of 7 mM aqueous ABTS solution followed by storage in the dark at room temperature for 16 h (2.45 mM final concentration). The solution was then diluted in ethanol to reach the absorbance of 0.72±0.02. After addition of the compound (20 μL), in triplicate, to ABTS.^+ solution (180 μL) the spectrophotometric measurement was carried out each minute over 15 minutes. […] Dose-response curves were established for the determination of IC50 values.

[6] = Redox potential by differential pulse and cyclic voltammetry, glassy carbon electrode; format: physicochemical; settings: physiological pH 7.4
Method: In an embodiment, the oxidative behaviour of the parent antioxidants (protocatechuic and gallic acids) and AntiOxBENs was evaluated at physiological pH 7.4, by differential pulse and cyclic voltammetry, using a glassy carbon working electrode. […] For pyrogallol derivatives (gallic acid, AntiOxBEN2, AntiOxBEN3), a significant decrease in redox potentials was observed (Ep=0.163-0.168 V) (Table 1).
In an embodiment, the electrochemical analytical data was obtained using a computer controlled potentiostat Autolab PGSTAT302N (Metrohm Autolab, Utrecht, Netherlands). Generally, cyclic voltammetry (CV) data was acquired at a scan rate of 50 mVs^−1. Differential pulse voltammetry (DPV) results were acquired at a step potential of 4 mV, pulse amplitude of 50 mV and scan rate of 8 mVs^−1. The electrochemical signals were monitored by the General Purpose Electrochemical System (GPES) version 4.9, software package. All electrochemical experiments were performed at room temperature in an electrochemical cell that was placed in a Faraday cage in order to minimize the contribution of background noise to the analytical signal.
In an embodiment, the process of evaluation of AntiOxBENs redox properties was conducted as follows: stock solutions of each compound (10 mM) were prepared by dissolving the appropriate amount in ethanol. The voltammetric working solutions were prepared in the electrochemical cell, at a final concentration of 0.1 mM. The […] supporting electrolyte was prepared by diluting 6.2 mL of 0.2 M dipotassium hydrogen phosphate and 43.8 mL of 0.2 M potassium dihydrogen phosphate to 100 mL. Voltammetric data was acquired in a three-electrode system consisting of a glassy carbon electrode (GCE, d=2 mm) as working electrode, a counter electrode of platinum wire and a saturated Ag/AgCl reference electrode. In an embodiment, the evaluation of AntiOxBENs lipophilic properties was performed as follows: the electrochemical cell was a four-electrode system with arrays of micro liquid-liquid interfaces (μITIES) containing two Ag/AgCl reference electrodes and two counter electrodes of Pt, one in each phase. The microporous membrane was sealed with a fluorosilicone sealant (Dow Corning 730) onto a glass cylinder which was filled with 4.0 mL of the aqueous phase, where the aliquots of AntiOxBENs solutions were added. The membrane was then immersed into the organic phase contained in the cell. The organic phase reference solution (a 2 mM BTPPACI+2 mM NaCl aqueous solution) was mechanically stabilized The aqueous supporting electrolyte solution was a Tris-HCl buffer 10 mM pH 7.0.

[7] = DPPH radical scavenging activity (total antioxidant capacity); format: biochemical; settings: ethanol, 515 nm, 45 min
Method: as §2
A DPPH ethanolic solution (6.85 mM) was also prepared and then diluted to reach the absorbance of 0.72±0.02 at 515 nm. Each compound solution (20 μL) was added to 180 μL of DPPH. solution in triplicate, and the absorbance at 515 nm was recorded minutely over 45 minutes. […] Dose-response curves were established for the determination of IC50 values.

[8] = GO radical scavenging activity; format: biochemical; settings: ethanol, 428 nm, 30 min
Method: The selected total antioxidant capacity (TAC) assays (DPPH, ABTS and GO) involved the spectrophotometric measurement of the radical absorbance decrease as a result of an in situ radical deactivation by an antioxidant.
as §2
In an embodiment, the GO. scavenging activity was evaluated as follows: solutions of test compounds with concentrations from 10 μM to 100 μM were prepared in ethanol. An ethanolic solution of 5 mM GO. was prepared and diluted to reach the absorbance of 1.00±0.02 at 428 nm. The addition (20 μL) in triplicate of compound solution to GO. solution (180 μL) was followed by absorbance measurement at 428 nm over 30 minutes, in the dark, at room temperature. […] Dose-response curves were established for the determination of IC50 values.

Question: With `O=C(O)CN(CCN(CC(=O)O)CC(=O)O)CC(=O)O` [EDTA, ethylenediaminetetracetic acid] as the compound, how does the “ability to chelate ferrous iron” value [1] read?
Answer: chelate all the iron available in solution

Question: With `COC1=C(OC)C(=O)C(CCCCCCCCCC[P+](c2ccccc2)(c2ccccc2)c2ccccc2)=C(C)C1=O.CS(=O)(=O)[O-]` [MitoQ, [10-(4,5-dimethoxy-2-methyl-3,6-dioxo-1,4-cyclohexadien-1-yl)decyl]triphenylphosphonium methanesulfonate, reference compound] as the compound, how does the “Δψ after ADP addition” value ([2]; 10 μM) read?
Answer: Δψ collapse after ADP addition

Question: And the “ADP-induced depolarization (ΔΨ in - mV)” value ([2]; Glutamate/Malate, 2.5 μM)?
Answer: 173.0 ± 9.4 - mV

Question: And the “Lag Phase” value ([2]; Glutamate/Malate, 2.5 μM)?
Answer: 86.5 ± 5.6 s

Question: And the “Maximum potential (ΔΨ in - mV)” value ([2]; Glutamate/Malate, 2.5 μM)?
Answer: 195.7 ± 10.8 - mV

Question: What about the “Repolarization Potential (ΔΨ in - mV)” value ([2]; Glutamate/Malate, 2.5 μM) of the same compound?
Answer: 191.1 ± 11.7 - mV

Question: And the “ADP-induced depolarization (ΔΨ in - mV)” value ([2]; Glutamate/Malate, 5 μM)?
Answer: 173.5 ± 8.9 - mV

Question: And the “Lag Phase” value ([2]; Glutamate/Malate, 5 μM)?
Answer: 84.5 ± 7.1 s

Question: What about the “Maximum potential (ΔΨ in - mV)” value ([2]; Glutamate/Malate, 5 μM) of the same compound?
Answer: 188.3 ± 10.6 - mV

Question: What about the “Repolarization Potential (ΔΨ in - mV)” value ([2]; Glutamate/Malate, 5 μM) of the same compound?
Answer: 185.0 ± 9.4 - mV

Question: And the “Maximum potential (ΔΨ in - mV)” value ([2]; Glutamate/Malate, 10 μM)?
Answer: 113.8 ± 10.2 - mV

Question: What about the “ADP-induced depolarization (ΔΨ in - mV)” value ([2]; Succinate, 2.5 μM) of the same compound?
Answer: 162.1 ± 6.0 - mV

Question: What about the “Lag Phase” value ([2]; Succinate, 2.5 μM) of the same compound?
Answer: 104.8 ± 9.9 s

Question: What about the “Maximum potential (ΔΨ in - mV)” value ([2]; Succinate, 2.5 μM) of the same compound?
Answer: 181.6 ± 8.3 - mV

Question: What about the “Repolarization Potential (ΔΨ in - mV)” value ([2]; Succinate, 2.5 μM) of the same compound?
Answer: 182.7 ± 9.2 - mV

Question: And the “ADP-induced depolarization (ΔΨ in - mV)” value ([2]; Succinate, 5 μM)?
Answer: 157.1 ± 6.4 - mV

Question: And the “Lag Phase” value ([2]; Succinate, 5 μM)?
Answer: 92.6 ± 19.4 s

Question: What about the “Maximum potential (ΔΨ in - mV)” value ([2]; Succinate, 5 μM) of the same compound?
Answer: 170.2 ± 8.1 - mV

Question: And the “Repolarization Potential (ΔΨ in - mV)” value ([2]; Succinate, 5 μM)?
Answer: 170.7 ± 8.7 - mV

Question: What about the “Maximum potential (ΔΨ in - mV)” value ([2]; Succinate, 10 μM) of the same compound?
Answer: 108.9 ± 3.8 - mV

Question: What about the “concentration causing toxicity on the mitochondrial bioenergetic apparatus of RLM” value ([3]; RLM) of the same compound?
Answer: 2500 nM

Question: And the ADP/O ([3]; RLM, Glutamate/Malate, 2.5 μM)?
Answer: 2.2 ± 0.1

Question: And the RCR ([3]; RLM, Glutamate/Malate, 2.5 μM)?
Answer: 4.2 ± 0.6

Question: What about the ADP/O ([3]; RLM, Glutamate/Malate, 5 μM) of the same compound?
Answer: 1.9 ± 0.1

Question: And the RCR ([3]; RLM, Glutamate/Malate, 5 μM)?
Answer: 2.7 ± 0.3

Question: And the ADP/O ([3]; RLM, Glutamate/Malate, 10 μM)?
Answer: 2.0 ± 0.2

Question: What about the RCR ([3]; RLM, Glutamate/Malate, 10 μM) of the same compound?
Answer: 1.3 ± 0.1

Question: And the ADP/O ([3]; RLM, Succinate, 2.5 μM)?
Answer: 1.3 ± 0.1

Question: What about the RCR ([3]; RLM, Succinate, 2.5 μM) of the same compound?
Answer: 2.6 ± 0.2

Question: What about the ADP/O ([3]; RLM, Succinate, 5 μM) of the same compound?
Answer: 1.3 ± 0.1

Question: And the RCR ([3]; RLM, Succinate, 5 μM)?
Answer: 2.4 ± 0.2

Question: And the “effect on RCR and ADP/O parameters” value ([3]; RLM, all tested concentrations (2.5-10 μM))?
Answer: significant decrease of RCR and ADP/O parameters

Question: What about the “uncoupling of RLM” value ([3]; succinate, highest concentration tested (10 μM)) of the same compound?
Answer: completely uncoupled

Question: And the “inhibition of lipid peroxidation in RLM” value ([4]; FIGS. 4 and 5 (TBARS and oxygen consumption))?
Answer: effectively inhibited lipid peroxidation

Question: Which IC50 [5] does the source give for `O=C(O)c1cc(O)c(O)c(O)c1` [Gallic acid] here?
Answer: 7.8 µM

Question: And the “Ep (redox potential)” value [6]?
Answer: 0.163 V

Question: What about the IC50 [7] of the same compound?
Answer: 9.9 µM

Question: And the IC50 [8]?
Answer: 2.5 µM

Question: What about the “prevention of TBARS formation / mitochondria lipid peroxidation” value [4] of the same compound?
Answer: most effective

Question: What about the “ability to chelate ferrous iron” value [1] of the same compound?
Answer: able to chelate iron efficiently

Question: For Vitamin E, which IC50 [5] is on record?
Answer: 30.9 µM

Question: What about the IC50 [7] of the same compound?
Answer: 26.3 µM

Question: And the IC50 [8]?
Answer: 5.8 µM

Question: What does the source list for `Cc1c(C)c2c(c(C)c1O)CCC(C)(C(=O)O)O2` (centres unmarked) [Trolox]?
Answer: IC50 [5]: 31.1 µM; Ep (redox potential) [6]: 0.099 V; IC50 [7]: 26.8 µM; IC50 [8]: 4.5 µM

Question: With `O=C(O)c1ccc(O)c(O)c1` [Protocatechuic acid] as the compound, how does the IC50 [5] read?
Answer: 30.1 µM

Question: And the “Ep (redox potential)” value [6]?
Answer: 0.257 V

Question: What about the IC50 [7] of the same compound?
Answer: 27.6 µM

Question: What about the IC50 [8] of the same compound?
Answer: 5.8 µM

Question: What about the “prevention of TBARS formation / mitochondria lipid peroxidation” value [4] of the same compound?
Answer: not effective

Question: What about the “ability to chelate ferrous iron” value [1] of the same compound?
Answer: able to chelate iron efficiently
